Paper PMC7178883, “1,2,4-Triazole-based anticonvulsant agents with additional ROS scavenging activity are effective in a model of pharmacoresistant epilepsy” (Journal of Enzyme Inhibition and Medicinal Chemistry, 2020)
≈ marks a conversion by molar mass, not a printed value. Like-named read-outs stand apart in the source and are kept apart here.

What was measured:
[1] = tested on: human recombinant butyrylcholinesterase (hrBChE); test: BChE inhibition, Ellman method; format: biochemical; conditions: 500 µM
Method: (§1) The inhibition ability of tested compounds against human recombinant acetylcholinesterase (hrAChE) and human recombinant butyrylcholinesterase (hrBChE) was determined by standard Ellman method adapted for 96-well plate. The reaction mixture contained 10 µL of hrAChE (70 ng/mL protein final concentration) or hrBChE (220 ng/mL protein final concentration), 10 µL of tested compound (1, 10, 100, and 500 µM final concentration), 20 µL of 5,5′-dithiobis-2-nitrobenzoic acid (DTNB; 500 µM final concentration), and 60 µL of 20 mM Na-phosphate buffer (pH 7.4). The mixture was pre-incubated at 37 °C for 15 min and subsequently 10 µL substrate acetylthiocholine iodide (ATChI) or butyrylthiochiline iodide (BTChI) was added to the final concentration of 1000 µM[24]. The final volume of reaction mixture was 100 µL. The product formed during the reaction (5-thio-2-nitrobenzoic acid, TNB) was determined by measurement of its absorbance at 436 nm. The catalytic activity was evaluated as amount of product (%) formed by enzyme after 10 min of mixture incubation at 37 °C.

[2] = DPPH assay; conditions: methanol, 30 min, 517 nm
Method: Free radical scavenging activity of compounds TP-10, TP-315 and TP-427 was evaluated using DPPH assay. Briefly, 25 µl of 0.2 mM of methanolic solution of DPPH ([…]) was mixed with 175 µl of varying concentrations (0.002–4.5 mg/ml) of the studied compounds dissolved in methanol. Reaction mixtures in the 96-well plate were incubated in the dark at room temperature for 30 min. The absorbance was measured at 517 nm against blank (which consists of all reagents without the investigated compounds) using a microplate reader (Epoch, BioTek Instruments, Inc., Winooski, VT, USA). As a reference, the antioxidant activity of vitamin C was evaluated. Each concentration of the compounds was assayed at least six times. The results were expressed as the IC50 (µg/ml) ± SD calculated using the linear regression analysis.

[3] = tested on: human recombinant acetylcholinesterase (hrAChE); test: AChE inhibition, Ellman method; format: biochemical; conditions: 500 µM
Method: as §1

[4] = target: T1, hCA II (Homo sapiens, UniProt P00918); test: Carbonic anhydrase inhibition, stopped flow CO2 hydration; format: biochemical
T1 construct: made in house
Method: Carbonic anhydrase catalysed CO2 hydration activity was measured using an Applied Photophysics stopped-flow spectrometer. […] The uncatalyzed rates were determined in the same manner and subtracted from the total observed rates. Stock solutions of inhibitor (0.1 mM) were prepared in distilled-deionized water and dilutions up to 0.01 nM were done thereafter with the assay buffer. […] The inhibition constants were obtained by non-linear least-squares methods using PRISM 3 and the Cheng–Prusoff equation and represent the mean from at least three different determinations. All CA isoforms were recombinant ones obtained in-house[21]^,[22].

[5] = CUPRAC assay; conditions: pH 7.0, 450 nm
Method: Cupric reducing antioxidant capacity (CUPRAC) assay was performed according to the method by Apak et al.[20] with slight modifications. The CUPRAC reagent was prepared by mixing equal volume of CuCl2 (10 mM), neocuproine solution (7.5 mM), and acetate buffer (pH = 7.0). Subsequently, 50 µl of TP-10, TP-315, TP-427 (0.002–0.4 mg/ml) and 150 µl of CUPRAC reagent were pipetted into each well of 96-well plate (Nunc, Roskilde, Denmark). After pipetting, the plate was shaken for 5 min and then incubated for 25 min in the dark at room temperature. The absorbance of the solutions was read at 450 nm using a microplate reader (Epoch, BioTek Instruments, Inc., Winooski, VT, USA). At least six tests were performed for each concentration of the investigated compounds. The results were expressed as the IC50 (µg/ml) ± SD.

[6] = tested on: U-87 MG cells; test: Mitochondrial membrane potential, JC-1 dye (flow cytometry); format: cell-based, human; conditions: 10 μg/ml, 24 h, control 5.0%
Method: Mitochondrial membrane potential changes (ΔMMP) were assessed using the JC-1 MitoScreen Kit (BD Biosciences Systems, San Jose, CA, USA) as described previously. Sample of 10^6 cells/ml was suspended in a buffer mixture and incubated for 15 min at 37 °C with JC-1 dye provided by the kit manufacturer. Subsequently, the cells were washed and resuspended in a buffer. Samples prepared in this way were subjected to cytometric analysis using a cytometer BD FACSCanto II and FACSDiva software (both from BD Biosciences Systems, San Jose, CA, USA).

[7] = tested on: generalised tonic-clonic seizures (MES test); design: method as in PMID 30594731, PMID 23291122, PMID 25226229, PMID 25090118; conditions: Figure 1, cited from earlier work; for ED50: MES test
[8] = tested on: 6 Hz-induced psychomotor seizures; test: 6 Hz psychomotor seizure test; format: in vivo, mice; conditions: for ED50: Mus musculus, ip; for Protective index (TD50/ED50): TD50 chimney test / ED50 6 Hz test
Method: All experiments on animals were performed in accordance with EU Directive 2010/63/EU for animal experiments and complied with the ARRIVE guidelines. Ethics approval for animal experimentations was obtained from the Local Ethics Committee (Lublin, Poland, approval number: 65/2018). Psychomotor seizures in mice were evoked by current (6 Hz, 0.2 ms rectangular pulse width, 32 mA, 3 s duration) generated by an S48 Square Pulse Stimulator and CCU1 Constant Current Unit (Grass Technologies, West Warwick, RI, USA). After application of ophthalmic anaesthetic (0.5% tetracaine hydrochloride) to the mice corneas, the animals underwent corneal stimulation and were placed separately in plexiglas cages (25 × 15 × 10 cm) for the observation of the presence or absence of psychomotor seizures. The animals were administered with increasing doses of TP-10, TP-315, TP-427, and the anticonvulsant activity of each compound was evaluated as the ED50 value (median effective dose of the drug, which protects 50% of mice against convulsions) calculated using the log-probit method of Litchfield and Wilcoxon[18].

[9] = 1 h incubation, read-out: KI hCA II (1h)
[10] = 6 h incubation, read-out: KI hCA II (6h)
[11] = mice, i.p., 32 mA, pretreatment time 15 min, read-out: ED50 ± SEM
[12] = mice, i.p., 32 mA, pretreatment time 30 min, read-out: ED50 ± SEM
[13] = mice, i.p., 32 mA, pretreatment time 60 min, read-out: ED50 ± SEM
[14] = mice, i.p., 32 mA, pretreatment time 120 min, read-out: ED50 ± SEM
[15] = mice, i.p., pretreatment times 15 to 120 min, read-out: ED50, range over the time-course
[16] = incubation time not given, read-out: Ki CA II

| SMILES | hrBChE activity [1] [%] | IC50 ± SD, DPPH [2] [µg/mL] | decrease of hrAChE activity [3] [%] | Ki [4, 9] [µM] | Ki [4, 10] [µM] | IC50 ± SD, CUPRAC [5] [µg/mL] | cells with low mitochondrial membrane potential (ΔΨm) [6] [%] | interaction with VPA [7] | ED50 [7] [mg/kg] | ED50 [8, 11] [mg/kg] | ED50 [8, 12] [mg/kg] | ED50 [8, 13] [mg/kg] | ED50 [8, 14] [mg/kg] | ED50 [8, 15] [mg/kg] | Protective index (TD50/ED50) ([8]; pretreatment time 15 min) | Protective index (TD50/ED50) ([8]; pretreatment time 30 min) | Protective index (TD50/ED50) ([8]; pretreatment time 60 min) | Protective index (TD50/ED50) ([8]; pretreatment time 120 min) | Peak of anticonvulsant activity (time after i.p. administration) ([8]; mice, i.p.) [min] | Ki [4, 16] [µM] | further results |
| --- | --- | --- | --- | --- | --- | --- | --- | --- | --- | --- | --- | --- | --- | --- | --- | --- | --- | --- | --- | --- | --- |
| Cc1ccc(-n2c(-c3cccc(Cl)c3)n[nH]c2=S)cc1 [TP-10, 5-(3-chlorophenyl)-4-(4-methylphenyl)-2,4-dihydro-3H-1,2,4-triazole-3-thione] | 84 | 31.72 ± 1.05 (≈ 105 µM) | ~54 | 74.6 | > 100 | 16.04 ± 0.61 (≈ 53.1 µM) | 8.0 | synergism with VPA | 57.0 | 62.6 ± 13.2 | 61.1 ± 9.7 | 170 ± 18.5 | 168 ± 17.4 | 61.1 to 170 | 5.4 | 5.5 | 2.0 | 2.4 | 30 |  | ED50 ([8]; 0.5 h, within the first 30 min after i.p. administration, read-out: ED50 (constant activity)): ~60 mg/kg |
| CCCCCCn1c(-c2cccc(Cl)c2)n[nH]c1=S [TP-315, 5-(3-chlorophenyl)-4-hexyl-2,4-dihydro-3H-1,2,4-triazole-3-thione] | 59 | 56.87 ± 0.70 (≈ 192 µM) | ~66 | > 100 | > 100 | 22.28 ± 1.03 (≈ 75.3 µM) | 9.9 |  | 47.6 | 61.3 ± 10.1 | 59.7 ± 6.8 | 68.1 ± 11 | 136 ± 18.3 | 59.7 to 136 | 7.6 | 7.8 | 6.7 | 3.3 | 30 | > 100 |  |
| CCCCCCn1c(Cc2cccc(Cl)c2)n[nH]c1=S [TP-427, 5-(3-chlorobenzyl)-4-hexyl-2,4-dihydro-3H-1,2,4-triazole-3-thione] | 78 | 110.51 ± 2.12 (≈ 357 µM) | ~61 | > 100 | > 100 | 30.92 ± 1.11 (≈ 99.8 µM) | 16.5 | synergism with VPA | 72.1 | 40.9 ± 6.4 | 46.6 ± 8.2 | 51.6 ± 6.9 | 64.9 ± 5.6 | 40.9 to 64.9 | >24.4 | >21.5 | 10.5 | 8.5 | 15 | > 100 |  |
